Legend:
[1] = tested on: Wistar rats; test: Five Choice Serial Reaction Time Task, standard version (STD), repeated administration; type: in vivo, Wistar rat; set-up: Latency (Correct) / Latency (Incorrect): unit not given here; details: for Latency (Correct) / Latency (Incorrect) / Magazine Head Entries / Omissions / Reward Latency / Trials Completed: STD
Excerpt: The behavioral tasks utilized were three versions of the rat Five Choice Serial Reaction Time Task (5C-SRTT), the standard version of the task (STD) with a fixed stimulus duration and a fixed intertrial interval, the variable stimulus duration (vSD) and the variable intertrial interval (vITI) version. The principal readout parameters in each task were the % Hit and the % correct choices (measures of sustained attention) and three measures of inhibitory response control (premature, perseverative, and timeout responses), although a number of additional outcome measures were obtained (see under Methods and Results below).
Twenty-four adult (approx. 10 months old) male Wistar rats (Envigo, Inc, Indianapolis, IN) were used in the study. […] Subjects were double housed in polycarbonate cages (45×30×18 cm) with corncob bedding in a vivarium of constant temperature (21-23° C.) and humidity (40-50%). […] All behavioral testing was performed during the light portion (9 a.m.-5 p.m.) of the light/dark cycle (Monday thru Friday). Animals were cared for in accordance with the Guide for the Care and Use of Laboratory Animals (U.S. National Institutes of Health) and the experimental protocols were approved by the Institutional Animal Care and Use Committee at Augusta University (Protocol #2010-0044).
The 5C-SRTT procedure (reviewed, Robbins, 2002. Psychopharmacology (Berl); 163(3-4):362-80) was conducted as we have described previously (Terry et al., 2014, Neurotoxicology and Teratology 44:18-29, 2014; Callahan et al., 2020, Neuropharmacology. August 15; 173:107994). […] Animals were trained in eight automated 5C-SRTT operant chambers (Med Associates, St. Albans, VT, USA), controlled by MedPC software (Med Associates). Briefly, each operant chamber was equipped with 5 apertures containing a photocell beam to detect nose pokes and a lamp (2.8 W) that could be illuminated randomly at varying durations. Food pellets (45 mg chow pellet, BioServ, Frenchtown, NJ, USA) were delivered automatically to a magazine, located on the opposite wall to the nose pokes, that was also equipped with a light that turned on to indicate that a pellet had been dispensed. The house-light remained on for the entire session unless an error or omission occurred. Training sessions began with the delivery of a food reward and retrieval triggered the first trial. […] Sessions ended when 40 minutes had lapsed or 100 trials had been completed.
For this study, subjects were re-trained 5 days per week until they re-established a stable performance criteria with a fixed (1.0 sec) stimulus duration and a fixed ITI (5 sec) of 70-75% accuracy, <20% omissions and completion of all 100 trials for 5 consecutive days. Upon meeting these performance criteria animals were trained for one additional week and two groups of subjects (N=12) were assembled and balanced according to their performance accuracy, specifically the % Hit evaluation, which takes into account correct responses as well as all incorrect responses including the number of omissions. […] The vSD version of the task increases the attentional load while the vITI increases impulsivity-like behavior. The following outcome measures and behavioral domains were assessed: % Hit and % correct=sustained attention; omissions=attention/motivation; premature responses=impulsivity; perseverative responses=compulsivity; timeout responses=cognitive inflexibility; magazine head entries=appetitive motivation and compulsivity-like behavior; response latencies=information processing speed and/or motivation. For the STD version of the task, the stimulus duration (SD) was fixed at 1.0 sec and the ITI was fixed at 5 sec. In the vSD version of the task the following stimulus durations were presented in a pseudorandom manner: 0.3, 0.6, and 0.9 sec. In the vITI version, 2.5, 5.0, and 10.0 sec ITIs were employed in a pseudorandom manner. […]

[2] = Equilibrium dialysis control in DPBS and stability in DPBS, plasma and brain homogenate; type: in vitro ADME, mouse; details: for % Recovery / % Unbound: DPBS
Procedure: Samples of spiked plasma and blank buffer (Dulbecco's phosphate-buffered saline, DPBS) and spiked brain homogenate and blank DPBS added to opposing sides of a dialysis membrane were collected from triplicate equilibrium dialysis chambers prior to (t=0) and following 1, 2, 4 and 6 hours of incubation at 37° C. […] The LC-MS/MS method(s) for analytes (Compound I-19, Compound A and Compound B) was cross-qualified for the analysis of the DPBS samples.
A secondary stock solution of 200 μM (74.2 ug/mL) will be prepared in DMSO. This secondary stock solution will then be diluted 100-fold to 2 μM ([…]) with male CD-1 mouse plasma and brain homogenate (1:2 v/v brain:Dulbecco's phosphate buffered saline, pH 7-7.2) or buffer (DPBS).
To 2.97 mL aliquots of thawed mouse plasma or brain homogenate warmed to 37° C., 30 ul aliquots of the secondary stock solution of the test compound will be added for final concentrations of 2 μM (0.742 ug/mL). An appropriate volume of warmed buffer (DPBS) will also be spiked with the test compound at a concentration of 2 μM ([…]). Triplicate aliquots (50 μL) of each spiked plasma, brain homogenate and buffer solution will be collected prior to dialysis into labeled 1.5 mL polypropylene tubes and then stored at approximately −80° C. until bioanalysis.

[3] = biological target: CYP2D6 (Homo sapiens, UniProt P10635); test: in vitro; details: both, pH 7.4
CYP2D6, sequence (P10635 whole entry): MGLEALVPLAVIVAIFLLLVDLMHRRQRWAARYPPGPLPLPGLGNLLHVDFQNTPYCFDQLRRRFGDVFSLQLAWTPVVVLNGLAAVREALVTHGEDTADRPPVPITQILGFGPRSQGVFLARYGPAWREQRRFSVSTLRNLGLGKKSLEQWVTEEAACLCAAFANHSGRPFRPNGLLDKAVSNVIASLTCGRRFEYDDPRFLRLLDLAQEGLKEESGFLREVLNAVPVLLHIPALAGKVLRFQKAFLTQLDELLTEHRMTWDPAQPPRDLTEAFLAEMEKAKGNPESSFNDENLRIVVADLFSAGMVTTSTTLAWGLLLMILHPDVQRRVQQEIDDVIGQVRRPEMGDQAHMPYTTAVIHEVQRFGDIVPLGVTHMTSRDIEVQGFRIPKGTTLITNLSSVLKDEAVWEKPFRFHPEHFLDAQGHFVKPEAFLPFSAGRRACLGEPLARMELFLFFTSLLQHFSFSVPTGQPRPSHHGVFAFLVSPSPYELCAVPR

[4] = Group 1, 0.1 mg/kg, Drug Exp period, mean ± SEM
[5] = Group 1, 0.1 mg/kg, Post-Drug Exp (vehicle washout) period, mean ± SEM
[6] = Group 2, 0.3 mg/kg, Drug Exp period, mean ± SEM
[7] = Group 2, 0.3 mg/kg, Post-Drug Exp (vehicle washout) period, mean ± SEM
[8] = dialysis time 1 h, 2 μM, 37° C.
[9] = dialysis time 2 h, 2 μM, 37° C.
[10] = dialysis time 4 h, 2 μM, 37° C.
[11] = dialysis time 6 h, 2 μM, 37° C.

SMILES: Clc1ccc(C2(OCC3OCCO3)c3ccccc3C3=NCCN32)cc1 (stereo not drawn) [Compound I-19]
- Latency (Correct) [1, 4]: 0.94
- Latency (Incorrect) [1, 4]: 2.15
- Magazine Head Entries [1, 4]: 150.65 ± 9.46
- Omissions [1, 4]: 9.43
- Reward Latency [1, 4]: 3.53
- Trials Completed [1, 4]: 96.99 ± 2.12
- Latency (Correct) [1, 5]: 0.87 ± 0.03
- Latency (Incorrect) [1, 5]: 1.86 ± 0.09
- Magazine Head Entries [1, 5]: 168.06 ± 13.60
- Omissions [1, 5]: 4.46 ± 0.81
- Reward Latency [1, 5]: 2.64
- Trials Completed [1, 5]: 97.65 ± 2.23
- Latency (Correct) [1, 6]: 0.92
- Latency (Incorrect) [1, 6]: 2.28
- Magazine Head Entries [1, 6]: 183.89 ± 32.19
- Omissions [1, 6]: 8.10 ± 2.32^+
- Reward Latency [1, 6]: 4.08
- Trials Completed [1, 6]: 98.44 ± 0.95
- Latency (Correct) [1, 7]: 0.78
- Latency (Incorrect) [1, 7]: 1.61 ± 0.07
- Magazine Head Entries [1, 7]: 211.72 ± 32.77
- Omissions [1, 7]: 3.26 ± 0.95
- Reward Latency [1, 7]: 2.27
- Trials Completed [1, 7]: 100.00
- % Hit and % correct ([1]; repeated 0.1 and 0.3 mg/kg IP): did not significantly affect either the % Hit or the % correct
- premature responses ([1]; repeated 0.1 and 0.3 mg/kg IP): reduced the number of premature responses compared to pre- and post-drug conditions
- Omissions ([1]; repeated 0.1 and 0.3 mg/kg IP, vSD and vITI versions): modest increases in the number of omissions
- Stability in DPBS, plasma and brain homogenate ([2]; 2 μM, 37° C., 6 hours): unstable in all three matrices
- % unbound in DPBS ([2]; 2 μM, 6 hours of dialysis): 94.0±5.12%
- % recovery, DPBS alone ([2]; 6 hours of dialysis): 20.2±0.461%
- % Recovery [2, 8]: 64.7 ± 3.04%
- % Unbound [2, 8]: 40.3 ± 3.69%
- % Recovery [2, 9]: 55.5 ± 2.08%
- % Unbound [2, 9]: 81.9 ± 5.87%
- % Recovery [2, 10]: 32.6 ± 1.05%
- % Unbound [2, 10]: 91.1 ± 4.19%
- % Recovery [2, 11]: 20.2 ± 0.461%
- % Unbound [2, 11]: 94.0 ± 5.12%

SMILES: OC1(c2ccc(Cl)cc2)c2ccccc2C2=NCCN21 (stereo not drawn) [Compound A, 5-(4-chlorophenyl)-2,3-dihydroimidazo[1,2-b]isoindol-5-ol, reference compound]
- inhibition at 10 µM [3]: 70.8%
